23 molecules from patent US20220363665A1, “QUINOLINE COMPOUNDS FOR THE TREATMENT OF AUTOIMMUNE DISEASE” (Hoffmann-La Roche Inc., priority 2019, published 2022) can be followed below.

For orientation: inhibition means the relative decrease from the control value, in per cent.

Holding throughout (assay type): in vitro ADME
Series [1] has as its target T1, CYP2C9 (Homo sapiens, UniProt P11712).
T1 construct: tissue BD-Gentest 452117; host or cells: human liver microsomes
The series is described as follows: CYP inhibition assay in human liver microsome, CYP2C9. The conditions noted are these: HLM, diclofenac substrate; for inhibition at 5 min, 10 µM: human, liver microsomes, probe diclofenac, read-out: CYP inhibition % @10 uM (2C9). The method, then: (§1) This is a high throughput screening assay used for assessment of reversible inhibition of CYP2C9, CYP2D6, and CYP3A4 activity of test compounds in human liver microsome (HLM) in early discovery stage.
(§2) 10 mM DMSO stock solutions of test compounds were diluted in DMSO to generate 2 mM intermediate stock solution. 250 nL of intermediate stock solution were transferred in duplicate into 3 separate 384 well microtitre plates (assay-ready plates). A mixture of HLM and each substrate was made up. 45 μL of HLM substrate mix was then transferred to each well of an assay ready plate and mixed. The negative (solvent) and positive controls (standard inhibitor for each CYP) were included in each assay ready plate. The assay ready plate was warmed to 37° C. in an incubator over 10 minutes. 5 μL pre-warmed NADPH regenerating system was added to each incubation well to start the reaction. Final incubation volume was 50 μL. The assay plate then was placed back in the 37° C. incubator. After 5 minutes incubation (10 minutes for CYP2D6), incubates were quenched by addition of 50 μL quench reagent containing internal standards (400 ng/mL 13C6-4′-OH-Diclofenac, 20 ng/mL D3-Dextrorphan and 20 ng/mL D4-1′OH-Midazolam in acetonitrile). The supernatants were collected for RapidFire/MS/MS analysis.
(§3) RapidFire online solid phase extraction/sample injection system (Agilent) coupled with API4000 triple quadrupole mass spectrometer (AB Sciex) were used for sample analysis. The mobile phase composed of acetonitrile and water supplemented with 0.1% formic acid. A C4 solid phase extraction cartridge is used for sample separation. MS detection is achieved in positive ion MRM mode.
(§4) Peak areas for substrate, metabolite and internal standard are determined using the
(§5) RapidFire integrator software (version 3.6.12009.12296). Peak area ratios (PAR) of metabolite and internal standard (stable-labelled metabolite) are then calculated. The measurement window for each experiment is then defined:
(§6) PAR (0% activity)=average PAR for all incubations containing concentrated inhibitor;
(§7) Par (100% activity)=average PAR for all incubations containing no inhibitor (DMSO controls);
(§8) % Activity (test inhibitor) =[PAR(test inhibitor)-PAR(0% activity)][PAR(100% activity)-PAR(0% activity)];
(§9) % Inhibition (test inhibitor)=100-% Activity (test inhibitor).
(§10) Percentage inhibition data are then reported, in duplicate, for the 3 CYP enzymes.
In general terms: Liver microsomes are vesicles of endoplasmic reticulum, rich in cytochrome P450 enzymes.

Series [2] concerns the target T2, CYP2D6 (Homo sapiens, UniProt P10635).
T2 construct: tissue BD-Gentest 452117; host or cells: human liver microsomes
The experiment in a line: CYP inhibition assay in human liver microsome, CYP2D6. The conditions noted are these: HLM, dextromethorphan substrate; for inhibition at 10 min, 10 µM: human, liver microsomes, probe dextromethorphan, read-out: CYP inhibition % @10 uM (2D6). The method, then:
as §1, §2, §3, §4, §5, §6, §7, §8, §9, §10

Series [3] concerns the target T3, CYP3A4 (Homo sapiens, UniProt P08684).
T3 construct: tissue BD-Gentest 452117; host or cells: human liver microsomes
The series is described as follows: CYP inhibition assay in human liver microsome, CYP3A4. The conditions noted are these: HLM, midazolam substrate; for inhibition at 5 min, 10 µM: human, liver microsomes, probe midazolam, read-out: CYP inhibition % @10 uM (3A4). On the procedure:
as §1, §2, §3, §4, §5, §6, §7, §8, §9, §10

T2 sequence (P10635 whole entry): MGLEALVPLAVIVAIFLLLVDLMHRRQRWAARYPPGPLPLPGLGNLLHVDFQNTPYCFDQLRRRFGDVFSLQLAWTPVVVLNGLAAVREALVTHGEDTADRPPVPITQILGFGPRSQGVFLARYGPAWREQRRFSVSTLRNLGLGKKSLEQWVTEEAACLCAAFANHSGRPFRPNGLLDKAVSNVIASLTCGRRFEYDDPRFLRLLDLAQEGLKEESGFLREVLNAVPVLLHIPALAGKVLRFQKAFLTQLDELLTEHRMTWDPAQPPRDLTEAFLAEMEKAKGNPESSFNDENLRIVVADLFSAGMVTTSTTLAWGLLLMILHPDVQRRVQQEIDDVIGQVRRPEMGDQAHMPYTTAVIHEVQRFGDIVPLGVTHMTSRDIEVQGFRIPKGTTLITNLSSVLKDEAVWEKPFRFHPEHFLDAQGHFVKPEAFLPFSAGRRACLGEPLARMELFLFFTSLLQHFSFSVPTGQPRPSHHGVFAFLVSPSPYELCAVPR
T1 sequence (P11712 whole entry): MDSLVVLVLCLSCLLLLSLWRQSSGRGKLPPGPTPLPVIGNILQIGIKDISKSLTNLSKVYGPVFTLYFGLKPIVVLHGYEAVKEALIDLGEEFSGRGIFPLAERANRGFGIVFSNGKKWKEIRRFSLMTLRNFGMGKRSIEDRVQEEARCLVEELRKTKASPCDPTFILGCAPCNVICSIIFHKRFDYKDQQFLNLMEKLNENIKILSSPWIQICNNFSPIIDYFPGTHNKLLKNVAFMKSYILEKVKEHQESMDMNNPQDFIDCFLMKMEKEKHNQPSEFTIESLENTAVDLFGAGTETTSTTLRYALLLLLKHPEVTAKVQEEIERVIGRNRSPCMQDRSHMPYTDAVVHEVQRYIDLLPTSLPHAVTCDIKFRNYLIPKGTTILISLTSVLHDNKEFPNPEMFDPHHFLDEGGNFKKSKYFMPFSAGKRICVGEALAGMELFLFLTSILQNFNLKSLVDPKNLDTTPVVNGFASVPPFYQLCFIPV
T3 sequence (P08684 whole entry): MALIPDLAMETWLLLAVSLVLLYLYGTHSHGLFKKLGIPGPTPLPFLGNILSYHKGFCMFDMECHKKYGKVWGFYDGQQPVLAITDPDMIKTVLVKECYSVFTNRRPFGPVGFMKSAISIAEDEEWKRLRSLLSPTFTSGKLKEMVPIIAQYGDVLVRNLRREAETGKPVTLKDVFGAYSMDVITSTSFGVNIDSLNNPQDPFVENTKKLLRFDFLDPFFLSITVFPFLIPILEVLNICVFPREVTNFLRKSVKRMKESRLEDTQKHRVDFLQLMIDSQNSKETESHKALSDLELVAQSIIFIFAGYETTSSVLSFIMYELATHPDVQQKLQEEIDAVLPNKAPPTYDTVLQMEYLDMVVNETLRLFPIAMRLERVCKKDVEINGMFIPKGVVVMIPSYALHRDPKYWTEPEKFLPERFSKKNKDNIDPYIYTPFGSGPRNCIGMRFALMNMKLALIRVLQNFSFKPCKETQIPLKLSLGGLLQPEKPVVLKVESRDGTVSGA

Consider `C[C@@H]1CN(c2ccc(C(F)(F)F)c3ncccc23)C[C@H](C(=O)N2CCC(N)C2)O1` (stereo partly drawn) [Example 10, (3-aminopyrrolidin-1-yl)-[(2R,6R)-6-methyl-4-[8-(trifluoromethyl)-5-quinolyl]morpholin-2-yl]methanone], for which the inhibition at 5 min, 10 µM in series [1] was found to be 11%; in series [3], 10%. The inhibition at 10 min, 10 µM in series [2] came out at 26%.

As to `Cc1ccc(N2C[C@@H](C)O[C@@H](C(=O)NC3CCN(C)CC3)C2)c2cccnc12` [Example 16, (2R,6R)-6-methyl-N-(1-methyl-4-piperidyl)-4-(8-methyl-5-quinolyl)morpholine-2-carboxamide], the figures for the inhibition at 5 min, 10 µM in series [1] and in series [3] were -8% and 2%, respectively. The inhibition at 10 min, 10 µM in series [2] worked out at 5%.

On to `C[C@@H]1CN(c2ccc(C(F)(F)F)c3ncccc23)C[C@H](C(=O)N2CCC3(CCNCC3)CC2)O1` [Example 32, 3,9-diazaspiro[5.5]undecan-3-yl-[(2R,6R)-6-methyl-4-[8-(trifluoromethyl)-5-quinolyl]morpholin-2-yl]methanone], for which the inhibition at 5 min, 10 µM in series [1] was -8%; in series [3], -2%. The inhibition at 10 min, 10 µM in series [2] is -22%.

Turning to `C[C@@H]1CN(c2ccc(C(F)(F)F)c3ncccc23)C[C@H](C(=O)NC[C@@H]2C[C@@H](F)CN2)O1` [Example 27, (2R,6R)-N-[[(2S,4R)-4-fluoropyrrolidin-2-yl]methyl]-6-methyl-4-[8-(trifluoromethyl)-5-quinolyl]morpholine-2-carboxamide], the values for the inhibition at 5 min, 10 µM in series [1] and in series [3] were -8% and -2%, respectively. Besides, the inhibition at 10 min, 10 µM in series [2] is 6%.

Consider `CC(NC(=O)[C@H]1CN(c2ccc(C(F)(F)F)c3ncccc23)C[C@@H](C)O1)C1CN(C)CCO1` (single isomer, unassigned) [Example 35A], for which, in series [1], the inhibition at 5 min, 10 µM was 10%. Besides, in series [2], the “CYP inhibition % @10 uM (2D6)” value stood at 8%.

`C[C@@H]1CN(c2ccc([N+](=O)[O-])c3ncccc23)C[C@H](C(=O)NCC2CN(C)CCO2)O1` (stereo partly drawn) [Example 18, (2R,6R)-6-methyl-N-[(4-methylmorpholin-2-yl)methyl]-4-(8-nitro-5-quinolyl)morpholine-2-carboxamide]: the values for the inhibition at 5 min, 10 µM in series [1] and in series [3] were -4% and 11%, respectively. For the same molecule, in series [2], the inhibition at 10 min, 10 µM amounted to 0%.

As for `C[C@H]1C[C@@H](N)CN(c2ccc(Cl)c3ncccc23)C1` [Example 23, (3R,5S)-1-(8-chloro-5-quinolyl)-5-methyl-piperidin-3-amine], the inhibition at 5 min, 10 µM in series [1] was -16%. For the same molecule, the inhibition at 10 min, 10 µM in series [2] came out at 35%.

`C[C@@H]1CN(c2ccc(C(F)(F)F)c3ncccc23)C[C@H](C(=O)NCC2CN(C)CCO2)O1` (stereo partly drawn) [Example 3, (2R,6R)-6-methyl-N-[(4-methylmorpholin-2-yl)methyl]-4-[8-(trifluoromethyl)-5-quinolyl]morpholine-2-carboxamide]: the inhibition at 5 min, 10 µM in series [1] is -1%; in series [3], -11%. The inhibition at 10 min, 10 µM in series [2] worked out at 16%.

For `C[C@@H]1CN(c2ccc(C(F)(F)F)c3ncccc23)C[C@H](C(=O)NC2CC3CNCC32)O1` (single isomer, unassigned) [Example 49B], the “CYP inhibition % @10 uM (2C9)” value in series [1] was −2%. Also, the “CYP inhibition % @10 uM (2D6)” value in series [2] is recorded as −12%. In addition, the “CYP inhibition % @10 uM (3A4)” value in series [3] (10 µM) was −36%.

Regarding `C[C@@H]1CN(c2ccc(I)c3ncccc23)C[C@H](C(=O)NC2CCN(C)CC2)O1` [Example 38, (2R,6R)-4-(8-iodo-5-quinolyl)-6-methyl-N-(1-methyl-4-piperidyl)morpholine-2-carboxamide], the inhibition at 5 min, 10 µM is -3% in series [1] and -2% in series [3]. Also, the inhibition at 10 min, 10 µM in series [2] is -1%.

With `C[C@@H]1CN(c2ccc(Cl)c3ncccc23)C[C@H](C(=O)NC2CCN(C)CC2)O1` [Example 24, (2R,6R)-4-(8-chloro-5-quinolyI)-6-methyl-N-(1-methyl-4-piperidyl)morpholine-2-carboxamide], in series [1], the inhibition at 5 min, 10 µM is -20%. Moreover, the inhibition at 10 min, 10 µM in series [2] was -6%.

With `C[C@@H]1CN(c2ccc(C(F)(F)F)c3ncccc23)C[C@H](C(=O)NCC2CCCCN2C)O1` (stereo partly drawn) [Example 4, (2R,6R)-6-methyl-N-[(1-methyl-2-piperidyl)methyl]-4-[8-(trifluoromethyl)-5-quinolyl]morpholine-2-carboxamide], the inhibition at 5 min, 10 µM in series [1] is -12%; in series [3], -14%. Moreover, in series [2], the inhibition at 10 min, 10 µM was found to be 10%.

Consider `C[C@@H]1CN(c2ccc(C(F)(F)F)c3ncccc23)C[C@H](C(=O)NC2CN(C)CC23CC3)O1` (stereo partly drawn) [Example 9, (2R,6R)-6-methyl-N-(5-methyl-5-azaspiro[2.4]heptan-7-yl)-4-[8-(trifluoromethyl)-5-quinolyl]morpholine-2-carboxamide], for which the inhibition at 5 min, 10 µM in series [1] was 2%; in series [3], -18%. Further, the inhibition at 10 min, 10 µM in series [2] stood at 6%.

For `C[C@@H]1CN(c2ccc(C(F)(F)F)c3ncccc23)C[C@H](C(=O)N2CCC(N)CC2)O1` [Example 12, (4-amino-1-piperidyl)-[(2R,6R)-6-methyl-4-[8-(trifluoromethyl)-5-quinolyl]morpholin-2-yl]methanone], the inhibition at 5 min, 10 µM in series [1] is 12%. In series [2], the inhibition at 10 min, 10 µM stood at 7%.

Turning to `C[C@@H]1CN(c2ccc(C(F)(F)F)c3ncccc23)C[C@H](C(=O)NC2CC3CCCC(C2)N3)O1` (single isomer, unassigned) [Example 34B], the “CYP inhibition % @10 uM (2C9)” value in series [1] is reported as −8%. Further, the “CYP inhibition % @10 uM (2D6)” value in series [2] is reported as −10%. Moreover, the inhibition at 5 min, 10 µM in series [3] is -28%.

Take `C[C@@H]1CN(c2ccc(Br)c3ncccc23)C[C@H](C(=O)NC2CCN(C)CC2)O1` [Example 42, (2R,6R)-4-(8-bromo-5-quinolyl)-6-methyl-N-(1-methyl-4-piperidyl)morpholine-2-carboxamide]: the inhibition at 5 min, 10 µM in series [1] was -4%. For the same molecule, in series [2], the inhibition at 10 min, 10 µM was -3%.

Consider `C[C@@H]1CN(c2ccc(C(F)(F)F)c3ncccc23)C[C@H](C(=O)N2CCC3(CCNC3)C2)O1` (some centres unmarked) [Example 36], for which the inhibition at 5 min, 10 µM in series [1] was 1%. Moreover, the inhibition at 10 min, 10 µM in series [2] was -10%.

`C[C@@H]1CN(c2ccc(C(F)(F)F)c3ncccc23)C[C@H](C(=O)NC2CC3CCCC(C2)N3)O1` (single isomer, unassigned) [Example 34A]: the “CYP inhibition % @10 uM (2C9)” value in series [1] is listed as −6%. Also, the “CYP inhibition % @10 uM (2D6)” value in series [2] is 3%.

For `Cc1ccc(N2C[C@@H](C)C[C@@H](N)C2)c2cccnc12` [Example 15, (3R,5S)-5-methyl-1-(8-methyl-5-quinolyl)piperidin-3-amine], the inhibition at 5 min, 10 µM in series [1] was -17%; in series [3], -18%. Also, the inhibition at 10 min, 10 µM in series [2] was -10%.

As to `C[C@@H]1CN(c2ccc(C(F)(F)F)c3ncccc23)C[C@H](C(=O)NCC2COCCN2C)O1` (stereo partly drawn) [Example 11, (2R,6R)-6-methyl-N-[(4-methylmorpholin-3-yl)methyl]-4-[8-(trifluoromethyl)-5-quinolyl]morpholine-2-carboxamide], the inhibition at 5 min, 10 µM is -4% in series [1] and -28% in series [3]. In addition, the inhibition at 10 min, 10 µM in series [2] was 5%.

As to `CC(NC(=O)[C@H]1CN(c2ccc(C(F)(F)F)c3ncccc23)C[C@@H](C)O1)C1CN(C)CCO1` (single isomer, unassigned) [Example 35B], in series [1], the “CYP inhibition % @10 uM (2C9)” value amounted to 6%. The “CYP inhibition % @10 uM (2D6)” value in series [2] is 2%.

`C[C@@H]1CN(c2ccc(C(F)(F)F)c3ncccc23)C[C@H](C(=O)NC2CC3CNCC(C3)C2)O1` (stereo partly drawn) [Example 37, (2R,6R)-N-(3-azabicyclo[3.3.1]nonan-7-yl)-6-methyl-4-[8-(trifluoromethyl)-5-quinolyl]morpholine-2-carboxamide]: the inhibition at 5 min, 10 µM in series [1] is 4%. In series [2], the inhibition at 10 min, 10 µM worked out at 3%.

For the molecule `C[C@@H]1CN(c2ccc(C(F)(F)F)c3ncccc23)C[C@H](C(=O)NC2CC3CNCC32)O1` (single isomer, unassigned) [Example 49C], the “CYP inhibition % @10 uM (2C9)” value in series [1] was determined as 11%. The “CYP inhibition % @10 uM (2D6)” value in series [2] stood at 8%.
